For assay [1], the system named is dysfunctional lymphatic vessels. Nature of the assay: Phenylephrine on dysfunctional mouse lymphatic vessel. Conditions: mouse diseased tissue sample, FIG. 18.
Assay [2] has the same test system. Nature of the assay: KATP channel inhibitor / L-type calcium channel agonist on diseased mouse tissue sample. The following applies: single agent, FIG. 20. On the procedure: Glibendamide was then applied to a disease mouse tissue sample. […] The combination of glibenclamide and BayK8644 was then evaluated in a diseased mouse tissue sample. […] BayK8644, along with BayR5417 and FPL64176, are exemplary L-type calcium channel agonists.

A further assay has as its system healthy lymphangion. Briefly: Rescue of valve lock in isolated pressurized lymphangions under elevated pressure. The arrangement: species or system mouse. From the text: FIG. 1A and FIG. 1B depict single (FIG. 1A) and multiple (FIG. 1B) lymphangion preparations showing measurements of pressure, diameter and valve position. FIG. 1C and FIG. 1D depict 1-valve preparations used for valve closure (FIG. 1C) and back-leak (FIG. 1D) tests. Color coding applies to pressure, diameter & valve traces shown in all subsequent figures; blue=upstream. black=mid segment, red=downstream. Pin and Pout are controlled with a computer-based servo controller; PL is intraluminal pressure measured with a servo-null micropipette inserted through the wall; diameters are measured with computer-based edge detection^(15); valve positions are determined using densitometry windows as shown^(21,22,69,71).
Studies were made of single and multiple lymphangions from mice under hydrostatic conditions simulating those experienced in primary and secondary lymphedema. When a progressive rise in outflow pressure is imposed, simulating the pressure load on the vessel in a dependent extremity, the normal response of the vessel is a myogenic constriction to Pout elevation (arrow, described in detail in ref.^(71)) with continued pumping, such that internal pressure generation slightly exceeds Pout during systole of each contraction cycle (*); as a result the output valve opens briefly in systole, allowing partial ejection. […]

Assay [3] has as its system human mesenteric lymphatic vessels. Briefly: Isolated pressurized human mesenteric lymphatic vessel segments, response to NE. The following applies: 33 nM NE. As for the experimental part: Recently, 1-, 2- and 3-valve segments of human mesenteric lymphatic vessels obtained following bariatric surgery were studied and their responses to Pout and/or Pin elevation and NE were tested. These are the first such measurements in isolated pressurized human lymphatics. […] Like rat/mouse vessels, the valves are biased to be open in the absence of a pressure gradient (arrowhead). Valve gating curves or tests for valve lock were unable to be performed because the vessels were too large to be studied on the microscope used with the pressure controller. However, it was encouraging to find that every response tested was similar to those of rat/mouse vessels.

Another assay concerns mouse popliteal vessel. Nature of the assay: Contractile function of isolated lymphatic vessels with impaired contractility. From the text: FIG. 9A, FIG. 9B, FIG. 9C and FIG. 9D depict the effect of norepinephrine (NE) on vessels with impaired contractility. […] FIG. 9C depicts that NE enhanced contractions in 13/14 vessels with impaired contractions and (FIG. 9D) induced >3.5-fold increase in FREQ (contraction frequency) and 2-fold increase in AMP (contraction amplitude) in a subset 8 vessels that had control contractions.
Data has been obtained to support the contention that NE has the potential not only to relieve valve lock (FIG. 3C) but also to enhance pump function. […] It is presumed that NE works by enhancing inotropy under these conditions and that it may be particularly effective in vessels fatigued or in partial pump failure from chronic pressure overload.

[4] abbreviates: subset of 8 vessels that had control contractions.

Several values for one entry are separate records, joined by “and”; a condition that tells them apart may be missing. Identical values can stand only once. Entries after “also recorded” stand apart in the source; their conditions may differ.

Turning to `CNC[C@H](O)c1cccc(O)c1` [PE, phenylephrine], in assay [1], the “effect on contraction and pumping” value is “restored contraction and pumping; also recorded: improves/restores normal contractions and pumping functions”.
Consider `COc1ccc(Cl)cc1C(=O)NCCc1ccc(S(=O)(=O)NC(=O)NC2CCCCC2)cc1` [glibenclamide], for which, in assay [2], the “effect on contractions and pumping functions” value is “improves/restores normal contractions and pumping functions”.
For `NC[C@H](O)c1ccc(O)c(O)c1` [NE, norepinephrine], the “relief of valve lock” value in the assay on healthy lymphangion (pressure remains elevated, dose that counteracts the loss of tone but does not fuse contractions) is given as “relieves valve lock; also recorded: reverses valve lock; also recorded: can be rescued”. Also, the “working range of a lymphangion pumping against an output load” value in the assay on healthy lymphangion (prophylactic application, vessel not yet failed) is “can be extended”. Moreover, in assay [3], the effect on tone result was “increase in tone”, the “increase in AMP” value is around 50% and the “increase in FREQ” value is on record as around 2 fold. Also, the “dose-dependent effect on frequency, tone and inotropy” value in the assay on mouse popliteal vessel (10^−8 to 10^−7M, FIG. 9) is “increases in frequency, tone and inotropy”. Also, in the assay with mouse popliteal vessel (fatigued or weakly contracting vessels), the “effect on contractions and pumping of vessels with impaired contractility” value was “induce tone and spontaneous contractions; also recorded: induced robust contractions that persisted when pressure was elevated; also recorded: restores contraction and pumping; also recorded: induces spontaneous contractions; also recorded: consistent, large-amplitude contractions”. Further, the “likelihood of having spontaneous contractions” value with mouse popliteal vessel (preliminary analysis, FIG. 9C) is “doubles”. Further, in the assay on mouse popliteal vessel (setting [4]), the “increase in AMP (contraction amplitude)” value was 2 fold; the “increase in FREQ (contraction frequency)” value is 3.5 fold and > 3.5 fold. Also, in the assay on mouse popliteal vessel (vessels with impaired contractions, knock-out mouse developing hindlimb edema), the “vessels with enhanced contractions” value is 13/14.

Values taken from patent US10918629B2, “Method for treating lymphedema” (The Curators of the University of Missouri, priority 2014, dated 2021).
